Measured values reported in patent publication US11440923B2, “Substituted macrocyclic indole derivatives” (Bayer Aktiengesellschaft, priority 2017, dated 2022).
Counter-ions that a name gives are not always drawn. Like-named read-outs stand apart in the source and are kept apart here.

How the values were obtained:
[1] = test system: SNU-16 cells; assay: Antiproliferation assay SNU-16 (Assay 7); assay type: cell-based; conditions: Homo sapiens, SNU-16; 72 h, CellTiter-Glo; read-out: Antiproli SNU-16 IC50 median
Protocol: (§1) Assessment of the Anti-Proliferative Effect of Compounds in Different Cell Lines
(§2) The impact of compounds on the proliferation of different cell lines was assessed using the CellTiter-Glo® Luminescent Cell Viability reagent from Promega (G7573).
(§3) In parallel, cells were plated in a reference (day 0) plate for time zero determination. Cells were incubated in a humidified incubator at 37° C. overnight.
(§4) Rim wells were excluded. The cells were incubated for 72 h hours in a humidified incubator at 37° C. The day 0 plate was measured by adding 30 μL/well of CTG solution (CellTiter-Glo® Luminescent Cell Viability reagent, Promega G7573) to time zero wells in the reference plate followed by a 10 minutes incubation and luminescence reading at 0.1 ms. using the PHERAstar FS microplate reader (BMG Labtech).
(§5) After 72 h incubation, the treated plates were measured in the same way as the day 0 plate mentioned above. The Bella DRC Master Sheet was used to calculate IC50s, with CI=day 0 values and C0=DMSO control values.

[2] = test system: SK-MEL-2 cells; assay: Antiproliferation assay SK-MEL-2 (Assay 7); assay type: cell-based; conditions: Homo sapiens, SK-MEL-2; 72 h, CellTiter-Glo; read-out: Antiproli SK-MEL-2 IC50 median
Outline: (§6)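 72 h antiproliferation, 37 °C, CellTiter-Glo luminescence. Day 0 plate = CI; DMSO = C0; IC50 calculated from these.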

[3] = test system: SNU-389 cells; assay: Antiproliferation assay SNU-389 (Assay 7); assay type: cell-based; conditions: 72 h, read-out: Antiproli SNU-389 IC50
Outline: as §6

[4] = molecular target: MCL-1 (Homo sapiens (Human), UniProt Q07820, K194A/K197A/R201A); assay: Protein-compound interaction assay (SPR assay, Assay 9); assay type: binding; conditions: for Kd: KD (geometric mean); for koff: read-out: koff (geometric mean), SPR, 25° C.; for kon: read-out: kon (geometric mean), SPR, 25° C.
Description: Assay 9 Protein-Compound Interaction Assay (SPR Assay)
The ability of the compounds described in this invention to bind to MCL-1 may be determined using surface plasmon resonance (SPR). This allows for the quantification of binding in terms of the equilibrium dissociation constant (KD [M]), as well as association and dissociation rate constants (kon [1/Ms] and koff [1/s], respectively). The measurements may be performed using Biacore® T200 or Biacore® S200 instruments (GE Healthcare).
Briefly, carboxymethylated dextran biosensor chips (Series S Sensor Chip CMS, GE Healthcare) were activated with 1-ethyl-3-(3-dimethylaminopropyl)-carbodiimide hydrochloride (EDC) and N-hydroxysuccinimide (NHS) according to the supplier's instructions. MBP-MCL-1 was diluted in 1×PBS-P+ (GE Healthcare) and injected on the activated chip surface. Subsequently, a solution of 1 M ethanolamine-HCl (GE Healthcare) was injected to block unreacted groups, resulting in approximately 400-2500 response units (RU) of immobilized protein. A reference surface was generated by treatment with NHS-EDC and ethanolamine-HCl. […] Compounds were injected for 60 s followed by a dissociation time of up to 1000 s.
The double-referenced sensorgrams were fit to a simple reversible Langmuir 1:1 reaction mechanism as implemented in the Biacore® T200 and S200 evaluation software (T200 evaluation software version 2.0 and S200 evaluation software version 1.0, GE Healthcare).

[5] = test system: A-431 cells; assay: Antiproliferation assay A-431 (Assay 7); assay type: cell-based; conditions: Homo sapiens, A-431; 72 h, CellTiter-Glo; read-out: Antiproli A-431 IC50 median
Protocol: as §1, §2, §3, §4, §5

[6] = test system: DMS-114 cells; assay: Antiproliferation assay DMS-114 (Assay 7); assay type: cell-based; conditions: Homo sapiens, read-out: Antiproli DM-S114 IC50 median
Protocol: as §1, §2, §3, §4, §5

[7] = test system: PA-1 cells; assay: Antiproliferation assay PA-1 (Assay 7); assay type: cell-based; conditions: Homo sapiens, PA-1; 72 h, CellTiter-Glo; read-out: Antiproli PA-1 IC50 median
Protocol: as §1, §2, §3, §4, §5

[8] = test system: MV-4-11 cells; assay: Antiproliferation assay MV-4-11 (Assay 7); assay type: cell-based
Protocol: as §1, §2, §3, §4, §5

[9] = DMS-114 cells, 72 h, CellTiter-Glo
[10] = 72 h, CellTiter-Glo; read-out: Antiproli MV-4-11 IC50 median
[11] = Homo sapiens, MV4-11, 72 h, CellTiter-Glo, read-out: Antiproli MV-4-11 IC50 median

MCL-1, sequence (Q07820 whole entry K194A/K197A/R201A, looked up): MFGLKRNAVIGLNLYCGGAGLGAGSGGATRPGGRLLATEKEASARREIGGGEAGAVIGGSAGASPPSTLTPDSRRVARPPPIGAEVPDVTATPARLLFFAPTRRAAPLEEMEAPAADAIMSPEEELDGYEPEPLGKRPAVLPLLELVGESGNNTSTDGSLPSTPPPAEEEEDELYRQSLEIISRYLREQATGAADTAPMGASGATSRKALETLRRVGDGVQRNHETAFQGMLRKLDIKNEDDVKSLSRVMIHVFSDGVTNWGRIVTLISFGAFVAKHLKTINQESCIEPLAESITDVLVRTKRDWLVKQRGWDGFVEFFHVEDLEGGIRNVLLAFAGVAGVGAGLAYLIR

Structure (SMILES)	Kd ([4]; SPR, 25° C.)	koff [4]	kon [4]	other results
CCc1c2c(nn1C)C(CCN1CCOCC1)OCCCCn1c(C(=O)O)c(CCCOc3cccc4cc(F)ccc34)c3ccc(F)c-2c31 (single isomer, unassigned; enantiomer 1) [Example 50, (+)-3-ethyl-4-fluoro-7-{3-[(6-fluoronaphthalen-1-yl)oxy]propyl}-2-methyl-15-[2-(morpholin-4-yl)ethyl]-2,10,11,12,13,15-hexahydropyrazolo[4′,3′:9,10][1,6]oxazacycloundecino[8,7,6-hi]indole-8-carboxylic Acid (Enantiomer 1)]	0.00036 µM	0.009 s⁻¹	2.5e+07 M⁻¹ s⁻¹	IC50 [1]: 0.321 µM; IC50 [2]: 0.505 µM; IC50 ([3]; CellTiter-Glo): 0.455 µM; IC50 [5]: 0.336 µM; IC50 [6, 9]: 0.153 µM; IC50 [7]: 0.222 µM
CCc1c2c(nn1C)C(CCO)OCCCCn1c(C(=O)O)c(CCCOc3cccc4cc(F)ccc34)c3ccc(Cl)c-2c31 (single isomer, unassigned; enantiomer 1) [Example 45, (+)-4-chloro-3-ethyl-7-{3-[(6-fluoronaphthalen-1-yl)oxy]propyl}-15-(2-hydroxyethyl)-2-methyl-2,10,11,12,13,15-hexahydropyrazolo[4′,3′:9,10][1,6]oxazacycloundecino[8,7,6-hi]indole-8-carboxylic Acid (Enantiomer 1)]	0.0023 µM	0.0068 s⁻¹	3e+06 M⁻¹ s⁻¹	IC50 ([3]; CellTiter-Glo): 0.35 µM; IC50 [6, 9]: 0.298 µM
CCc1c2c(nn1C)C(CCOC)OCCCCn1c(C(=O)O)c(CCCOc3cccc4cc(F)ccc34)c3ccc(Cl)c-2c31 (single isomer, unassigned; enantiomer 1) [Example 42, (+)-4-chloro-3-ethyl-7-{3-[(6-fluoronaphthalen-1-yl)oxy]propyl}-15-(2-methoxyethyl)-2-methyl-2,10,11,12,13,15-hexahydropyrazolo[4′,3′:9,10][1,6]oxazacycloundecino[8,7,6-hi]indole-8-carboxylic Acid—N-ethylethanamine Salt (Enantiomer 1)]	0.0028 µM	0.0032 s⁻¹	1.2e+06 M⁻¹ s⁻¹	IC50 [3]: 0.27 µM; IC50 ([6]; DMS-114, 72 h): 0.156 µM
Cc1c2c(nn1C)C(CCN1CCOCC1)OCCCCn1c(C(=O)O)c(CCCOc3cccc4ccccc34)c3ccc(Cl)c-2c31 (single isomer, unassigned; enantiomer 1) [Example 14, 4-chloro-2,3-dimethyl-15-[2-(morpholin-4-yl)ethyl]-7-{3-[(naphthalen-1-yl)oxy]propyl}-2,10,11,12,13,15-hexahydropyrazolo[4′,3′:9,10][1,6]oxazacycloundecino[8,7,6-hi]indole-8-carboxylic Acid (Enantiomer 1)]	0.0013 µM	0.031 s⁻¹	2.3e+07 M⁻¹ s⁻¹	IC50 ([3]; CellTiter-Glo): 0.183 µM; IC50 [6, 9]: 0.15 µM; IC50 [8, 10]: 0.0376 µM
CCC1OCCCCn2c(C(=O)O)c(CCCOc3cccc4ccccc34)c3ccc(Cl)c(c32)-c2c1nn(C)c2C (single isomer, unassigned; enantiomer 1) [Example 29, (+)-4-chloro-15-ethyl-2,3-dimethyl-7-{3-[(naphthalen-1-yl)oxy]propyl}-2,10,11,12,13,15-hexahydropyrazolo[4′,3′:9,10][1,6]oxazacycloundecino[8,7,6-hi]indole-8-carboxylic Acid—N-ethylethanamine Salt (Enantiomer 1)]	0.0083 µM	0.014 s⁻¹	1.7e+06 M⁻¹ s⁻¹	–
Cc1c2c(nn1C)C(CCO)OCCCCn1c(C(=O)O)c(CCCOc3cccc4ccccc34)c3ccc(Cl)c-2c31 (single isomer, unassigned; enantiomer 1) [Example 31, (+)-4-chloro-15-(2-hydroxyethyl)-2,3-dimethyl-7-{3-[(naphthalen-1-yl)oxy]propyl}-2,10,11,12,13,15-hexahydropyrazolo[4′,3′:9,10][1,6]oxazacycloundecino[8,7,6-hi]indole-8-carboxylic Acid (Enantiomer 1)]	0.0018 µM	0.008 s⁻¹	4.4e+06 M⁻¹ s⁻¹	–
Cc1c2c(nn1C)C(CCN1CCOCC1)OCCCCn1c(C(=O)O)c(CCCOc3cccc4cc(F)ccc34)c3ccc(F)c-2c31 (racemic) [Example 19, (rac)-4-fluoro-7-{3-[(6-fluoronaphthalen-1-yl)oxy]propyl}-2,3-dimethyl-15-[2-(morpholin-4-yl)ethyl]-2,10,11,12,13,15-hexahydropyrazolo[4′,3′:9,10][1,6]oxazacycloundecino[8,7,6-hi]indole-8-carboxylic Acid]	–	–	–	IC50 [8, 11]: 0.14 µM
CCc1c2c(nn1C)C(CCC1CCOCC1)OCCCCn1c(C(=O)O)c(CCCOc3cccc4cc(F)ccc34)c3ccc(Cl)c-2c31 (single isomer, unassigned; enantiomer 1) [Example 61, 4-chloro-3-ethyl-7-{3-[(6-fluoronaphthalen-1-yl)oxy]propyl}-2-methyl-15-[2-(oxan-4-yl)ethyl]-2,10,11,12,13,15-hexahydropyrazolo[4′,3′:9,10][1,6]oxazacycloundecino[8,7,6-hi]indole-8-carboxylic Acid (Enantiomer 1)]	0.0013 µM	0.0021 s⁻¹	1.6e+06 M⁻¹ s⁻¹	–
Cc1c2c(nn1C)C(CCN1CCOCC1)OCCCCn1c(C(=O)O)c(CCCOc3cccc4cc(F)ccc34)c3ccc(Cl)c-2c31 (single isomer, unassigned; enantiomer 1) [Example 17, 4-chloro-7-{3-[(6-fluoronaphthalen-1-yl)oxy]propyl}-2,3-dimethyl-15-[2-(morpholin-4-yl)ethyl]-2,10,11,12,13,15-hexahydropyrazolo[4′,3′:9,10][1,6]oxazacycloundecino[8,7,6-hi]indole-8-carboxylic Acid—N-ethylethanamine (Enantiomer 1)]	0.00077 µM	0.015 s⁻¹	2e+07 M⁻¹ s⁻¹	–
Cc1c2c(nn1C)C(CCN1CCOCC1)OCCCCn1c(C(=O)O)c(CCCOc3cccc4ccccc34)c3ccc(Cl)c-2c31 (racemic) [Example 13, (rac)-4-chloro-2,3-dimethyl-15-[2-(morpholin-4-yl)ethyl]-7-{3-[(naphthalen-1-yl)oxy]propyl}-2,10,11,12,13,15-hexahydropyrazolo[4′,3′:9,10][1,6]oxazacycloundecino[8,7,6-hi]indole-8-carboxylic Acid]	–	–	–	IC50 [8, 11]: 0.22 µM
Cc1c2c(nn1C)C(CCN1CCOCC1)OCCCCn1c(C(=O)O)c(CCCOc3cccc4ccccc34)c3ccc(Cl)c-2c31 (single isomer, unassigned; enantiomer 2) [Example 15, 4-chloro-2,3-dimethyl-15-[2-(morpholin-4-yl)ethyl]-7-{3-[(naphthalen-1-yl)oxy]propyl}-2,10,11,12,13,15-hexahydropyrazolo[4′,3′:9,10][1,6]oxazacycloundecino[8,7,6-hi]indole-8-carboxylic Acid (Enantiomer 2)]	–	–	–	IC50 [8, 10]: 7.84 µM
CCc1c2c(nn1C)C(CCN1CCOCC1)OCCCCn1c(C(=O)O)c(CCCOc3cccc4ccccc34)c3ccc(F)c-2c31 (single isomer, unassigned; enantiomer 2) [Example 12, 3-ethyl-4-fluoro-2-methyl-15-[2-(morpholin-4-yl)ethyl]-7-{3-[(naphthalen-1-yl)oxy]propyl}-2,10,11,12,13,15-hexahydropyrazolo[4′,3′:9,10][1,6]oxazacycloundecino[8,7,6-hi]indole-8-carboxylic Acid—N-ethylethanamine Salt (Enantiomer 2)]	0.022 µM	–	–	koff (geometric mean) ([4]; SPR, 25° C.): 3.4 E−3 1/s; kon (geometric mean) ([4]; SPR, 25° C.): 1.5 E5 1/M 1/s; IC50 ([8]; read-out: Antiproli MV-4-11 IC50 median; 72 h, CellTiter-Glo): 14.4 µM
